Where two headings read alike, the source gives them in different places.

Some targets named below: WNK4 (Homo sapiens, UniProt Q96J92); PLK2 (Homo sapiens, UniProt Q9NYY3); PAK6 (Homo sapiens, UniProt Q9NQU5); CAMK2G (Homo sapiens, UniProt Q13555).
Test in all cases: biochemical
Common to all, as to set-up: DiscoveRx KINOMEscan active site-directed competition binding; percent of control kinase bound to immobilised ligand

In another test the target is T1, LZK (Homo sapiens, UniProt O43283).
T1 construct: gene MAP3K13
T1 sequence (O43283 1-966): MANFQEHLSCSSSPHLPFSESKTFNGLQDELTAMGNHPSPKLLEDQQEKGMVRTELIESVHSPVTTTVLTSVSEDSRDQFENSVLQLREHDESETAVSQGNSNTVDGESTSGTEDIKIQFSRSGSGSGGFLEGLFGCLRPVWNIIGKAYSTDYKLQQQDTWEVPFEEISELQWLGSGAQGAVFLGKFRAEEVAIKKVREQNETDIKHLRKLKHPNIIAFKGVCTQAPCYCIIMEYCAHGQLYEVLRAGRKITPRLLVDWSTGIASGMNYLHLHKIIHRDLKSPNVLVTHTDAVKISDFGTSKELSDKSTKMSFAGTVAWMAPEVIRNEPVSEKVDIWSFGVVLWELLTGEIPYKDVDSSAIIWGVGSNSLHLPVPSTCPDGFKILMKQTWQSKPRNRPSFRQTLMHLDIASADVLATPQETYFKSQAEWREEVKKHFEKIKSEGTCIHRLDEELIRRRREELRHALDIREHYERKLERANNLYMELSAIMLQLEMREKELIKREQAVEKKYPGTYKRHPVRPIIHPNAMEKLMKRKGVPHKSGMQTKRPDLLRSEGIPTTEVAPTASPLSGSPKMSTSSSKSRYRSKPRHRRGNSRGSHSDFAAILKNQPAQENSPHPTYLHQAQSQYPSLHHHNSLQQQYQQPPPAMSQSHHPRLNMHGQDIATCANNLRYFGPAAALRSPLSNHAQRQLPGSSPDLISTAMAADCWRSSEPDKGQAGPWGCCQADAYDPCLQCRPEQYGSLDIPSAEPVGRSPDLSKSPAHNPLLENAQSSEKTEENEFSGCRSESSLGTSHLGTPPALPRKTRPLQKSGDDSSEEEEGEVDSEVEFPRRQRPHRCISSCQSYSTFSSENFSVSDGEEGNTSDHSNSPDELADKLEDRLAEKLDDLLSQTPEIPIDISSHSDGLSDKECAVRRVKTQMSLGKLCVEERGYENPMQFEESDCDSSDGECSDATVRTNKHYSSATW

For the next test, the target named is T2, ERK4 (Homo sapiens, UniProt P31152).
T2 construct: gene MAPK4

For a further test, the target named is T3, AMPK-alpha1 (Homo sapiens, UniProt Q13131).
T3 construct: gene PRKAA1

The target of another test is T4, YANK2 (Homo sapiens, UniProt Q9NY57).
T4 construct: gene STK32B

Another test concerns the target T5, PLK4 (Homo sapiens, UniProt O00444).
T5 sequence (O00444 1-970): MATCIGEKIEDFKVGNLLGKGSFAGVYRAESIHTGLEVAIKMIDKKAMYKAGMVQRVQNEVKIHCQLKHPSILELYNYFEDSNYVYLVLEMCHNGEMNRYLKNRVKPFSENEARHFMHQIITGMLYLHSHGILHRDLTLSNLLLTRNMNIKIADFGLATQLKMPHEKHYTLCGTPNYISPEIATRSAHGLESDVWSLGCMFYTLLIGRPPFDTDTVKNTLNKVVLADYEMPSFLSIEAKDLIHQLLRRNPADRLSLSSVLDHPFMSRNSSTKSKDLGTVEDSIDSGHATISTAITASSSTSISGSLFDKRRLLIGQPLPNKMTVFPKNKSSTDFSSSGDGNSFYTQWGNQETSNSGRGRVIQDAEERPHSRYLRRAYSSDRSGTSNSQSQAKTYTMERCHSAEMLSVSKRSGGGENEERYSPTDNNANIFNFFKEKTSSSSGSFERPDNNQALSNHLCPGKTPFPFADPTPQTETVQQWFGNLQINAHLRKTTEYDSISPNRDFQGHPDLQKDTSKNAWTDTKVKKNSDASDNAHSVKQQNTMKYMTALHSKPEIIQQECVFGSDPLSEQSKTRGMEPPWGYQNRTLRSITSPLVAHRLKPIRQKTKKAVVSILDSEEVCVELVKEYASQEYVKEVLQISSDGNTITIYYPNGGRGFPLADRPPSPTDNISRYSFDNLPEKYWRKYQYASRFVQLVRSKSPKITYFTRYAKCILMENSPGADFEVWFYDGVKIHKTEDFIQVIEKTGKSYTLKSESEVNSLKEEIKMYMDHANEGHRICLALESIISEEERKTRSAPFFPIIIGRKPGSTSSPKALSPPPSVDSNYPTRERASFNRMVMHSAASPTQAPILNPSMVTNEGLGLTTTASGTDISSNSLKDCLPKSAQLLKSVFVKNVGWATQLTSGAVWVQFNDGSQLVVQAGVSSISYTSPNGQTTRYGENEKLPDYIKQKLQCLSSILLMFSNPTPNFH

The mark [1] stands for this setting: read-out: Rucaparib / %Ctrl @ 10000nM, binding competition, % of control.
The mark [2] stands for this setting: read-out: Talazoparib (BMN 673) / %Ctrl @ 10000nM.
Where [3] appears, read: read-out: Niraparib (MK-4827) / %Ctrl @ 10000nM.
Setting [4] is: read-out: Olaparib / %Ctrl @ 10000nM.

T3 sequence (Q13131 whole entry): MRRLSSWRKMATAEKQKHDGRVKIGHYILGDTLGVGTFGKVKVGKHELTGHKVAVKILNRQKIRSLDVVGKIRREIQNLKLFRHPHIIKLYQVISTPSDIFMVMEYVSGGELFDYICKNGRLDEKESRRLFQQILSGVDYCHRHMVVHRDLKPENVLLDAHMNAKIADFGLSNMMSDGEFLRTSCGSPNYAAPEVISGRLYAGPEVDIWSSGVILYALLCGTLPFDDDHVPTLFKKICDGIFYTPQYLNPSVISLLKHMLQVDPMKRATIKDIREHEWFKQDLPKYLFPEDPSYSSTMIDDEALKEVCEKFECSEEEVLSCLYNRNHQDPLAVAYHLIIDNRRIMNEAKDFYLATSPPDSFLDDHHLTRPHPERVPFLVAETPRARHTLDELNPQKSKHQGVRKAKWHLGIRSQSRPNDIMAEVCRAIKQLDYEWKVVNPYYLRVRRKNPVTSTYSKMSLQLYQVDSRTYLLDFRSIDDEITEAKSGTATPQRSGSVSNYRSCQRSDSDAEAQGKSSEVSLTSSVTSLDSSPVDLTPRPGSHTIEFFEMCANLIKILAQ
Sequence of PAK6 (Q9NQU5 whole entry): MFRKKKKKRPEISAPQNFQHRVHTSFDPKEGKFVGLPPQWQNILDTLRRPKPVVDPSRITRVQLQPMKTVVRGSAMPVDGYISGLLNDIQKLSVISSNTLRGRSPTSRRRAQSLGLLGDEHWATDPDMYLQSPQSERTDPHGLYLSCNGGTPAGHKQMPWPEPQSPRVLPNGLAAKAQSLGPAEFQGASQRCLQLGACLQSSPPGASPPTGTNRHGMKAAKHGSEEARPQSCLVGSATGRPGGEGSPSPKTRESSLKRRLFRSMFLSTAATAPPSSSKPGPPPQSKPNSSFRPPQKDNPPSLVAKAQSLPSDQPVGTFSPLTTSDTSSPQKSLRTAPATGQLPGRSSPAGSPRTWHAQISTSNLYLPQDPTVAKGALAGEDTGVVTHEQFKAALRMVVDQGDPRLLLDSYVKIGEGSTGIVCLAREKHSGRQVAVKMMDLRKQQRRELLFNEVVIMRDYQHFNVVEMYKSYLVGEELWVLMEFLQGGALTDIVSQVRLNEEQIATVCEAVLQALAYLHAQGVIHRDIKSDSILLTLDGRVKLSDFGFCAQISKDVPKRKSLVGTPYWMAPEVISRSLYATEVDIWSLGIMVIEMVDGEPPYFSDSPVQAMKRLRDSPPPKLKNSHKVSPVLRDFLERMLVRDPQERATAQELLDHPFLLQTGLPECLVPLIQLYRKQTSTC
Sequence of PLK2 (Q9NYY3 whole entry): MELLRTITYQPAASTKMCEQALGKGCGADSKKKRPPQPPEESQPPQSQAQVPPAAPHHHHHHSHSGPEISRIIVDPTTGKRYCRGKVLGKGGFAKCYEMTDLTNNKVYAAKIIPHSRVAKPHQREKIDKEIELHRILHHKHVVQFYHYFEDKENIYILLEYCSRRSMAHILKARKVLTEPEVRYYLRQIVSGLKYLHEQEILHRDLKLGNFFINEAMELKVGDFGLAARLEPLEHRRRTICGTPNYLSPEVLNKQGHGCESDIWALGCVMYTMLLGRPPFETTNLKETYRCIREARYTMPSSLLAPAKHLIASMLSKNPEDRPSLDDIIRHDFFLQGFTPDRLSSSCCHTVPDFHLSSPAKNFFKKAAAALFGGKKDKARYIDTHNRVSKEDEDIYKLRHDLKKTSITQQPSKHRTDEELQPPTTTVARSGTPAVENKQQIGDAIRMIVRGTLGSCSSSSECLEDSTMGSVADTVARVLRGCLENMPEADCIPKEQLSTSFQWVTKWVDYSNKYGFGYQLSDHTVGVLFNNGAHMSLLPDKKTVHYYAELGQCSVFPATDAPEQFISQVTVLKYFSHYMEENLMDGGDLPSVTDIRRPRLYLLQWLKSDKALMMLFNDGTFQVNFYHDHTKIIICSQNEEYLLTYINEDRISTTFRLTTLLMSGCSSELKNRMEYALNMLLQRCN
T2 sequence (P31152 whole entry): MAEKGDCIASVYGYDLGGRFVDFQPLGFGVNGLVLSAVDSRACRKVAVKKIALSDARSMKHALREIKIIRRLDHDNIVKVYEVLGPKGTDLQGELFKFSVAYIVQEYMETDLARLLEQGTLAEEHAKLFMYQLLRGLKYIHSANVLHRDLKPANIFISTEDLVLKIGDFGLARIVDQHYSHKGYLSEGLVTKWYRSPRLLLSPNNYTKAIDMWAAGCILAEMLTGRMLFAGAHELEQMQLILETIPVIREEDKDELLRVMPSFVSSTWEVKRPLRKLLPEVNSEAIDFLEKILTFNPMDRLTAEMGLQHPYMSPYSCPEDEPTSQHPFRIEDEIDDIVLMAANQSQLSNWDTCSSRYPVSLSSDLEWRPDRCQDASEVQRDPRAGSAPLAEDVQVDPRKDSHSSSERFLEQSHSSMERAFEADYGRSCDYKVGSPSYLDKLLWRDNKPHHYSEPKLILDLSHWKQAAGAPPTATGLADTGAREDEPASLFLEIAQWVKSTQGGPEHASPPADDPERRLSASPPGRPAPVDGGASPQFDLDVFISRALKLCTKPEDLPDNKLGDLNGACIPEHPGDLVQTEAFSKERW
Sequence of WNK4 (Q96J92 whole entry): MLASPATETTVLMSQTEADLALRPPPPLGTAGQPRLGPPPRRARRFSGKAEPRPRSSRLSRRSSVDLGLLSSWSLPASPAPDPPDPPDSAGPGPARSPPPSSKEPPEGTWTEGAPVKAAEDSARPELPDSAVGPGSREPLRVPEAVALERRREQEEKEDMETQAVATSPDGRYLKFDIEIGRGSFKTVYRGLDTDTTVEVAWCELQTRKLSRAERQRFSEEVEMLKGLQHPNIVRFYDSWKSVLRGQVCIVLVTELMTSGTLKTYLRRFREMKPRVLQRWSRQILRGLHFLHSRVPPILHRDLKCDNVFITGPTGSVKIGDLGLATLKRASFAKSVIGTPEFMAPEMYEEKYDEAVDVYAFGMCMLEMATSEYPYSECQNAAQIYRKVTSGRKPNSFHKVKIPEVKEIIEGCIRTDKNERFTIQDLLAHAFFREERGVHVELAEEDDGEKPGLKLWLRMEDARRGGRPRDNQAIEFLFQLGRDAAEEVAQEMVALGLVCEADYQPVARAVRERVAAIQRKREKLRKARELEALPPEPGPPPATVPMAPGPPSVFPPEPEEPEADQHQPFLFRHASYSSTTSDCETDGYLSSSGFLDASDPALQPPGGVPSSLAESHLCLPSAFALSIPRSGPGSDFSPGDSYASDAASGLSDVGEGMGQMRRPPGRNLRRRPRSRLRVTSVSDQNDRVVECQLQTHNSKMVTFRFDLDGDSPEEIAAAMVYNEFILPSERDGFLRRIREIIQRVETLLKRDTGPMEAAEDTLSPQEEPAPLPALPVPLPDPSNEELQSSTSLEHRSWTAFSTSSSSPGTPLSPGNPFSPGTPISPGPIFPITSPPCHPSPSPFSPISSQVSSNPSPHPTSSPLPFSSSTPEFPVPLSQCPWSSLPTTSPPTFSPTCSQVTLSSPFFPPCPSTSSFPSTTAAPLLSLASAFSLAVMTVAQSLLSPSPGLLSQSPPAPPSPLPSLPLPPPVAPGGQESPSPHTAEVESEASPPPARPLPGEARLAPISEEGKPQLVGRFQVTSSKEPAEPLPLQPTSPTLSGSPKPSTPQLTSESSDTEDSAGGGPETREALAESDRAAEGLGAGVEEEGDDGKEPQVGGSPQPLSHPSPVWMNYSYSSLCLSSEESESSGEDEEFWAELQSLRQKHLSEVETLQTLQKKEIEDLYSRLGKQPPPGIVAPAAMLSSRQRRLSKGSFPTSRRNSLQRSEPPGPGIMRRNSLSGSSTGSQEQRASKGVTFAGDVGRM
Sequence of CAMK2G (Q13555 whole entry): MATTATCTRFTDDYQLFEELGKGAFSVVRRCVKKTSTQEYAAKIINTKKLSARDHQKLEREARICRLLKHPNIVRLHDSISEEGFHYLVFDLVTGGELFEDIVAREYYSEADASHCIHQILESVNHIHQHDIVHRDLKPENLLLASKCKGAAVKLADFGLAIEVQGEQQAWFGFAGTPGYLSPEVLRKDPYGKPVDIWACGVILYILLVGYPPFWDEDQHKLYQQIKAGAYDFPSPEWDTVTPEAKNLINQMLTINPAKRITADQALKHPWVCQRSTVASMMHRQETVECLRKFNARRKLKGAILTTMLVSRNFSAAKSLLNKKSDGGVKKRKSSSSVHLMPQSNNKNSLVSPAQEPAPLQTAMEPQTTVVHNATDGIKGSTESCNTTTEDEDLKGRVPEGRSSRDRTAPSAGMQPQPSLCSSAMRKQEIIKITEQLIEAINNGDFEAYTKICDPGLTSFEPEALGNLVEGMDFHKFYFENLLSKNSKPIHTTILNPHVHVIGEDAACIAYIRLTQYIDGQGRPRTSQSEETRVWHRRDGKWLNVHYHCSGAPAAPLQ
T4 sequence (Q9NY57 whole entry): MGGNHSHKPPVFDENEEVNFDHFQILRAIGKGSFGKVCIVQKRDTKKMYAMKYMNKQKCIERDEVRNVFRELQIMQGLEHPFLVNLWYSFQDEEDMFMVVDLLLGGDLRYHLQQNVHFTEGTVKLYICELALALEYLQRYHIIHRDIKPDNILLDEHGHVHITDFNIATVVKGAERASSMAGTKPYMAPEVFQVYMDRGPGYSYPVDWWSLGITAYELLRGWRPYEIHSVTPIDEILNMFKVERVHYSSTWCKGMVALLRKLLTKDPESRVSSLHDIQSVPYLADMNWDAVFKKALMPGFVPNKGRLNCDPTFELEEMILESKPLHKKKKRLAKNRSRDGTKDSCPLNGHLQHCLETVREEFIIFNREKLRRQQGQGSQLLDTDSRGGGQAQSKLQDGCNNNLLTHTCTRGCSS

Consider `CNCc1ccc(-c2[nH]c3cc(F)cc4c3c2CCNC4=O)cc1` [Rucaparib], for which the percent of control binding at 10 µM on WNK4 (setting [1]) turned out to be 97%; on LZK (setting [1]), 100%; on ERK4 (setting [1]), 97%; on PLK2 (setting [1]), 76%; at AMPK-alpha1 (setting [1]), 92%; at YANK2 (setting [1]), 100%. The percent of control binding at 10 µM at PLK4 (setting [1]) worked out at 99%; on PAK6 (setting [1]), 96%; on CAMK2G (setting [1]) it was 83%.
For `Cn1ncnc1[C@H]1c2n[nH]c(=O)c3cc(F)cc(c23)N[C@@H]1c1ccc(F)cc1` [Talazoparib], the percent of control binding at 10 µM was 100% at WNK4 (setting [2]); 100% on LZK (setting [2]); 100% at ERK4 (setting [2]); 100% on PLK2 (setting [2]); 100% at AMPK-alpha1 (setting [2]); 91% at YANK2 (setting [2]). The values for the percent of control binding at 10 µM on PLK4 (setting [2]), on PAK6 (setting [2]) and at CAMK2G (setting [2]) were 72%, 90% and 95%, respectively.
Regarding `NC(=O)c1cccc2cn(-c3ccc([C@@H]4CCCNC4)cc3)nc12` [Niraparib], the percent of control binding at 10 µM is 100% at WNK4 (setting [3]); 96% at LZK (setting [3]); 98% on ERK4 (setting [3]); 92% on PLK2 (setting [3]); 77% on AMPK-alpha1 (setting [3]); 100% at YANK2 (setting [3]). The percent of control binding at 10 µM at PLK4 (setting [3]) was found to be 56%; at PAK6 (setting [3]), 93%; on CAMK2G (setting [3]), 95%.
Regarding `O=C(c1cc(Cc2n[nH]c(=O)c3ccccc23)ccc1F)N1CCN(C(=O)C2CC2)CC1` [Olaparib], the percent of control binding at 10 µM at WNK4 (setting [4]) was determined as 100%; on LZK (setting [4]), 100%; on ERK4 (setting [4]), 100%; on PLK2 (setting [4]) it was 95%; on AMPK-alpha1 (setting [4]), 98%; at YANK2 (setting [4]), 94%. For the same compound, the percent of control binding at 10 µM at PLK4 (setting [4]) was determined as 91%; at PAK6 (setting [4]), 87%; at CAMK2G (setting [4]), 100%.

These data come from publication PMC7026418, “The kinase polypharmacology landscape of clinical PARP inhibitors” (Scientific Reports, 2020).
